The source of these data is patent US8642593B2, “2,4-pyrimidinediamine compounds and prodrugs and their uses” (Rigel Pharmaceuticals, Inc., priority 2009, dated 2014).

Where two headings read alike, the source gives them in different places.

Assay [1] has as its system mast cell activation induced by FcγR cross-linking (CHMC cells). As to the kind of experiment: LD Tryptase CHMC: tryptase release assay. The class given is cell-based, Human. As to conditions: for IC50: Mast cell; for potency compared with the control, whole cell assay: vs control compound. Here is the method:
Compounds are assayed for inhibition of mast cell activation induced by FcγR cross-linking by measuring the activity of tryptase released upon degranulation as follows:
Human mast cells are cultured and differentiated from CD38-negative progenitor cell as described in U.S. Patent Publication No. 2005/0234049, which is hereby incorporated herein by reference in its entirety. For example, 65 μL of various concentrations of the test compound are prepared in MT (137 mM NaCl, 2.7 mM KCl, 1.8 mM CaCl2, 1.0 mM MgCl2, 5.6 mM Glucose, 20 mM Hepes (pH 7.4), 0.1% Bovine Serum Albumin, (Sigma, #A4503)) containing 2% MeOH and 1% DMSO, or control buffer are added to duplicate 96-well V-bottom plates. Pelleted and re-suspended (in warm MT) CHMC cells (65 μL) are added to each 96-well plate, mixed and incubated for 1 hour at 37° C. […] MT (25 μL) is added to control wells. After a 60-minute incubation at 37° C., cells and cell debris were pelleted by centrifugation at 1000 rpm for 10 min and tryptase and leukotriene C4 levels are measured.
To measure tryptase levels, 25 μL of supernatant from each well is transferred to a fresh 96-well black bottom plate, to which 100 μL of fresh tryptase substrate solution [(Z-Ala-Lys-Arg-AMC2TFA; Enzyme Systems Products, #AMC-246)]1:2000 in tryptase assay buffer [0.1M Hepes (pH 7.5), 10% w/v Glycerol, 10 μM Heparin (Sigma H-4898) 0.01% NaN3] is added. After 30 minutes incubation at room temperature, the optical density of the plates is measured at 355 nm/460 nm on a spectrophotometric plate reader.
Compounds of the disclosure were assayed for their ability to inhibit mast cell activation induced by FcγR cross-linking by measuring the activity of tryptase released upon degranulation.

In another assay the target is T1, KDR/VEGFR2 enzyme (Homo sapiens, UniProt P35968).
T1 construct: purchased Millipore #14-630
As to the kind of experiment: Biochemical VEGFR Assay (ELISA). The note with it: Table 2, unit inferred; read-out: Biochem VEGFR2. As for the experimental part: Compounds are tested for the ability to inhibit VEGF2 in an ELISA assay. […] Plates are then washed with 1×PBST using a plate washer, then blocked with 2% BSA in 1×PBST (100 μL/well) for 1 hr at room temperature. The NeutrAvidin-coated plates are again washed with 1×PBST using a plate washer.
The mixed test compound/reaction solutions are added to the wells of the NeutrAvidin-coated plates (50 μL/well). 6× enzyme solution (1000 parts kinase buffer, 0.6 parts KDR/VEGFR2 enzyme (50 μg/mL, Millipore, #14-630) is added to all wells except those designated as negative controls. The plates are incubated for 30 minutes on a shaker at room temperature.
The detection reagent is added at 100 μL/well, and the plates are incubated for 60 minutes at room temperature, then washed with 1×PBST using a plate washer.
Background: ELISA stands for enzyme-linked immunosorbent assay.

Assay [2] concerns the target T2, VEGF-induced phosphorylation of VEGFR in HUVEC cells (Homo sapiens, UniProt P35968).
T2 construct: VEGF-induced phosphorylation of VEGFR in HUVEC cells; host or cells: HUVEC cells
As to the kind of experiment: Cellular VEGFR Assay. The class given is cell-based. As to conditions: for IC50: HUVEC cells, Table 2, unit inferred, read-out: Cellular VEGFR2; for selectivity against VEGF as compared to the control: vs control compound. Here is the method: The coated plates are then blocked with 2% BSA in PBS for 2 hours.
Cells are washed 1× with PBS. 100 μL starvation medium (EBM2 media, Cambrex, #CC3156, containing 1% BSA and 0.2% FBS) is added and cells are returned to the incubator for 20-24 hours. Test compounds or control drugs are serially diluted in DMSO in a compound plate and further diluted 1:250 in starvation medium. 100 μL, of this 2× concentration is dosed to the cells. […] Plates are then placed on a rocker/shaker at 4° C. for 1 hour.
Phosphorylated VEGFR2 is determined by ELISA. After a wash with TBST, 30 μL/well of the cell lysate is transferred into the anti-human VEGFR2 mAb-coated plates (described above) containing 200 μL/well of 1% BSA in PBS, and incubated with shaking at 4° C. overnight. […] The signal is read using a SpectraMax M5 plate reader.

The mark [3] stands for this setting: Homo sapiens, Table 2, unit inferred, read-out: LD Tryptase CHMC.
[4] abbreviates: Homo sapiens, read-out: IC50 value (tryptase assay).
Where [5] appears, read: human mast cells, anti-IgG stimulation, read-out: IC50 (LD Tryptase CHMC).

T2 sequence (P35968 20-1356): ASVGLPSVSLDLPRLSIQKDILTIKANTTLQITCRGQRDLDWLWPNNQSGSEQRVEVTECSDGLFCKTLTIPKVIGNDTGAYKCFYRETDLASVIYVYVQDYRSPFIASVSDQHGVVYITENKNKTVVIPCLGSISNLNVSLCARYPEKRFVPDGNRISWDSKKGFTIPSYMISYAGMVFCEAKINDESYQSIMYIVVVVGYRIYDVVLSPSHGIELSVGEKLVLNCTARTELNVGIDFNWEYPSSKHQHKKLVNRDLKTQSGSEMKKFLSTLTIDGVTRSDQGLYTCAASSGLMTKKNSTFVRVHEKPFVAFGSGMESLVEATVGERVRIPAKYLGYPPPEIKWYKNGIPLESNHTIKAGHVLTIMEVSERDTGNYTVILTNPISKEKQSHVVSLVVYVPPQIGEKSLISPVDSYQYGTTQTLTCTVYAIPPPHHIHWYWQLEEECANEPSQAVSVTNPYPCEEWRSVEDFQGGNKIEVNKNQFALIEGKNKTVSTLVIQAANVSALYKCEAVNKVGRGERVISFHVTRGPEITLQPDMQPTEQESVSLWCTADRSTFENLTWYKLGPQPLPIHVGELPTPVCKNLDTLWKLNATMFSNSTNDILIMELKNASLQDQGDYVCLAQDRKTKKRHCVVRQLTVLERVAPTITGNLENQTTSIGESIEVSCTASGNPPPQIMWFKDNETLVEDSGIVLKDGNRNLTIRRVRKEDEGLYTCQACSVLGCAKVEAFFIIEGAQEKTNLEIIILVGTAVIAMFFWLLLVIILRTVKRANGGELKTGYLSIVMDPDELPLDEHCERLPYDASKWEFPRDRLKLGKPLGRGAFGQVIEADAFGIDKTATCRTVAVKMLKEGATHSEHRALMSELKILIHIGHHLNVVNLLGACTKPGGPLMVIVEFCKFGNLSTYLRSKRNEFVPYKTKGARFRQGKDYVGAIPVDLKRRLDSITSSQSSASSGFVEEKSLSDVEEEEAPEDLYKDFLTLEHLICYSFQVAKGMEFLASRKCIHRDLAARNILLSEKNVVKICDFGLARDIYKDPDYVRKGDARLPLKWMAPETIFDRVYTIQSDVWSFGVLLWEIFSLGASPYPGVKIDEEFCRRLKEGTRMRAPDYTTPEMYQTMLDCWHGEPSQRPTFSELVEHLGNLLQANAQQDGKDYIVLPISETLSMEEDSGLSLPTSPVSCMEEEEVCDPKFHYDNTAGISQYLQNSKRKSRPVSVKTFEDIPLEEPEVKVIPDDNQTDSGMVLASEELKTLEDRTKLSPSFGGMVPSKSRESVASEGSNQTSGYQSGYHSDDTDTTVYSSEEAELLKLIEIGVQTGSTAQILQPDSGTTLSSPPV
T1 sequence (P35968 790-1356 limits assumed): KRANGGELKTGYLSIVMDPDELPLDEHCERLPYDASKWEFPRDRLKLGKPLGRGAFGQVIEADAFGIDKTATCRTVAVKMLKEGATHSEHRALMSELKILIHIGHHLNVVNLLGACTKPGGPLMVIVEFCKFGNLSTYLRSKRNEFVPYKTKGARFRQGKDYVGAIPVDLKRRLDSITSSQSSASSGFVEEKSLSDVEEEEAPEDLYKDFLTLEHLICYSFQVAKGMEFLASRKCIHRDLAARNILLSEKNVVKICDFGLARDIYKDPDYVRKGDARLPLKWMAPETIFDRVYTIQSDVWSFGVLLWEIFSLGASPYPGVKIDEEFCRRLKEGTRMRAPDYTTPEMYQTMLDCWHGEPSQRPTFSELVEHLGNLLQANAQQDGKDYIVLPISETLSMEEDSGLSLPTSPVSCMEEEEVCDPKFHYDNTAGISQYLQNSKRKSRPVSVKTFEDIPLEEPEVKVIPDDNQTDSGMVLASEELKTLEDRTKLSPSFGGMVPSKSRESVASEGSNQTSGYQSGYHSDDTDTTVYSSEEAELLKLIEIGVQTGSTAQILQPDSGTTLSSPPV

`CC1(C)Oc2ccc(Nc3nc(Nc4ccc(N5CCOCC5)nc4)ncc3F)nc2NC1=O` [Compound 1, N4-(2,2-Dimethyl-3-oxo-4H-5-pyrido[1,4]oxazin-6-yl)-5-fluoro-N2-[6-morpholinopyridin-3-yl]-2,4-pyrimidinediamine]: the IC50 was 90 nM in assay [1] (setting [3]); under 100 nM in assay [1] (setting [4]); 90 nM in assay [1] (setting [5]); 770 nM at KDR/VEGFR2 enzyme; 16800 nM in assay [2]. The “potency compared with the control, whole cell assay” value in assay [1] is “somewhat less potent than the control”. Further, the “selectivity against VEGF as compared to the control” value in assay [2] was “significantly increased selectivity”.

In the case of `CC1(C)Oc2ccc(Nc3nc(Nc4ccc(N5CCOCC5)cc4)ncc3F)nc2NC1=O` [Compound 3, N4-(2,2-Dimethyl-3-oxo-4H-5-pyrido[1,4]oxazin-6-yl)-5-fluoro-N2-(4-morpholinophenyl)-2,4-pyrimidinediamine], the IC50 in assay [1] (setting [3]) is 80 nM; in assay [1] (setting [4]) it was under 100 nM; in assay [1] (setting [5]), 80 nM; at KDR/VEGFR2 enzyme it was 340 nM; in assay [2], 5230 nM. Also, the “potency compared with the control, whole cell assay” value in assay [1] is reported as “somewhat less potent than the control”. Besides, in assay [2], the “selectivity against VEGF as compared to the control” value is recorded as “significantly increased selectivity”.
